Results taken from US9072729B2, “Method for treating fibrosis and cancer with imidazolium and imidazolinium compounds” (Agency for Science, Technology and Research, priority 2008, dated 2015).

What was measured:
[1] = system: survivin in HLE cells; experiment: Survivin translocation assay (HCS); assay type: cell-based, human; conditions: 24 hr
Method: FIG. 25. DBZIM induced nucleus to cytoplasm translocation of survivin protein. (A) Representative immunocytostaining images of HLE cells treated by DBZIM (0 and 1.0 mM) for 24 hr. Arrows indicate the accumulation and the disappearance of survivin in the nucleus of the control and the DBZIM-treated cells, respectively. The images were acquired and analyzed using ArrayScan VTI HCS reader (Thermal Scientific, PA, USA) and Target Activation BioApplication software. (B) Quantitation of translocation event. Cells were grown in 96-well plate and treated by DBZIM of various concentrations for 24 hr before fixation and immunocytostaining for survivin. Lower value in “Cytoplasmic-Nuclear Difference” indicated a lower amount of cytoplasmic survivin.
HLE cells cultured in 96-well plate were treated with DBZIM for 24 hr before staining and imaging. Cells were then fixed and stained with antibodies against […] and Survivin. (Lab Vision Corp. CA, USA) and buffer reagent from Hitkit (Thermo Scientific, IL, USA). The cells were imaged and analyzed on ArrayScan VTI HCS reader (Thermal Scientific, PA, USA). Fluorescence intensity in the cytoplasmic and nuclear area was plotted for indication of cytoplasm to nucleus translocation.

[2] = system: HLE cells; experiment: Annexin V staining and flow cytometry, HLE; assay type: cell-based, human; conditions: 24 hr, TRAIL 100 ng/ml
Method: (§1) FIG. 22. […] HLE or HepG2 cells were incubated with DBZIM of various concentrations for 6 hr, and assayed for caspase 3/7 activity and LDH releasing (expressed as % toxicity). DBZIM induced apoptosis as characterized by annexin V staining using flow cytometer in HLE (E) and HepG2 (F). Scatter plot and histogram gave the representative information on the cell population distribution while bar graphs quantified the percentage of apoptotic cells from the histogram. HLE and HepG2 cells were treated by DBZIM of various concentrations for 24 hr before harvesting for annexin V staining and flow cytometric analysis.
HLE and HepG2 cells were treated with various concentrations of DBZIM or TRAIL (100 ng/ml) for 24 hr, harvested and labeled with Annexin V-FITC (BioVision, CA, USA). The labeled cells were analysed by flow cytometry FACSCalibur ([…], NJ, USA) and CellQuest software. Cells showing green staining in the plasma membrane were considered as apoptotic cells.

[3] = system: HLE cells; experiment: DNA content analysis (cell cycle) in HLE cells; assay type: cell-based, human; conditions: 0, 1, 3 mM, 24 hr
Method: FIG. 21. DBZIM inhibited cell proliferation and disrupted cell cycle in HLE cells (A). DBZIM inhibited HCC cell proliferation. HLE cells were seeded at a density of 5000 cells/well in 96-well plate, and cultured for 18-24 h in 10% […] DMEM before the addition of various compounds (0-1.25 mM) in 10% FBS DMEM for 48 h of proliferation before assaying. Cell count was calculated based on Hoechst dye staining and BrdU incorporation was based on the total fluorescence intensity of antibody staining. (B). DBZIM arrested HCC cells at G0/G1 phase. HLE cells were incubated with DBZIM (0, 1, 3 mM) for 24 hr before fixation and DAPI staining for DNA content (2N vs. 4N) determination.
HLE cells grown in a 96-well plate were treated with compounds in 6 replicates for 24 hr. Cells were then fixed with 4% paraformaldehyde and stained with DAPI. Cells were analyzed and imaged on ArrayScan VTI HCS reader (Thermal Scientific, PA, USA) and DNA content (2N vs. 4N) was determined based on DAPI staining.

[4] = system: HLE cells; experiment: Cell based caspase 3/7 and LDH assays, HLE; set-up: species or system human; conditions: 6 hr
Method: as §1
Capspase 3/7 activity and lactate dehydrogenase (LDH) release were measured by Fluorometric assays (Promega Corp., WI, USA). The HCC cells were cultured in 96-well plate and treated with DBZIM of various concentrations for 6 hr before assays. For caspase 3/7 assay, medium was removed and substrate buffer was added to lyse the cell and react with caspase 3/7 to give rise to fluorescence signal which was read at Ex=485 nm and Em=530 nm on a Tecan Safire II plate reader after 1 hr incubation. The caspase 3/7 activity of sample cells with the compound treatment was expressed as relative fold change after normalizing to the control cells. The LDH assay (indicative of membrane integrity) was performed using a Kit from Promega Corp according to manufactor's instructions.

[5] = system: Bcl-2 and IAP protein expression in HepG2 cells; experiment: Western blot of Bcl-2 and IAP family proteins; assay type: cell-based, human; conditions: HepG2, 0-2.0 mM, 24 hr
Method: FIG. 24. DBZIM affected Bcl-2 and IAP protein expression. HepG2 cells were treated with DBZIM (0, 0.5, 1.0, 1.5 and 2.0 mM) for 24 hr. Total protein was collected using RIPA buffer. 15 μg of total protein was resolved in 4-12% gradient PAGE-SDS gel. The target proteins were recognized by respective antibodies, and visualized by the ECL method. The membrane was stripped and probed for the α-tubulin as the loading control.
Protein extracts were prepared by lysing cell pellet in RIPA buffer (Pierce, Ill., USA) for total protein extract, or in NE-PER reagent from Pierce (Pierce, Ill., USA) for nuclear and cytoplasmic fractions, or in a Kit from BioVision (CA, USA) for mitochondria and cytosol fractions. Protein content was quantified using BCA Kit (Pierce, Ill., USA). Fifteen micrograms of protein were resolved in 4-12% gradient SDS/polyacrylamide gel electrophoresis (PAGE) gel, and transferred to nitrocellular membrane. The membrane was then probed with primary antibodies against Bcl-XL, Bak, Bcl-2α, Bax (Lab Vision Corp., CA, USA), survivin, xIAP, cIAP (R&D systems Inc., MN, USA), c-Jun, c-Fos, JunB, JunD, Fra-1, Fra-2 (Santa Cruz Biotechnology, CA, USA) respectively, and detected by horseradish peroxidase-conjugated secondary antibody (Santa Cruz Biotechnology, CA, USA). Protein bands were recorded on X-ray film by reacting with ECL chemiluminescence reagents (Amersham Biosciences, NJ, USA). Alpha-tubulin (Abeam, UK) was used as the loading control for total protein, Tata binding protein (TBP) (Abeam, UK) was used as the loading control for nuclear protein, and Cox4 (Abcam, UK) was used as loading control for mitochondria protein.

For `[Br-].c1ccc(Cn2cc[n+](Cc3ccccc3)c2)cc1` [DBZIM, 1,3-bisbenzylimidazolium bromide], the survivin translocation [1] was “translocated from the nucleus to the cytoplasm”, the “apoptosis (annexin V staining)” value [2] was “dose-dependently induced apoptosis” and the cell cycle arrest [3] was “arrested HLE cells in the G0/G1 phase”. For the same compound, the LDH release [4] was “least affected”, the “caspase 3/7 activity” value [4] was “enhanced” and the Bak protein [5] was “up-regulated”. The “Bcl-2α and Bax proteins” value [5] was “not affected”, the Bcl-XL protein [5] was “slightly down-regulated” and the survivin protein [5] was “significantly suppressed”. The “xIAP and cIAP proteins” value [5] was “not affected”.
